From PubChem BioAssay (NCI)
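Exposure lasted 48 hours, with cells grown in 96-well plates and compounds tested at five concentrations. TGI: total growth inhibition.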

Assays:
Assay in all cases: NCI anticancer screen, dose series, 48 h
HCC-2998 colon = tested on: HCC-2998 colon
HOP-62 NSCLC = tested on: HOP-62 NSCLC
NCI-H23 lung = tested on: NCI-H23 lung
EKVX NSCLC = tested on: EKVX NSCLC
IGROV1 ovarian = tested on: IGROV1 ovarian
U251 CNS = tested on: U251 CNS
NCI-H460 lung = tested on: NCI-H460 lung
HCT-15 colon = tested on: HCT-15 colon
HL-60(TB) leukemia = tested on: HL-60(TB) leukemia
SK-MEL-5 melanoma = tested on: SK-MEL-5 melanoma
COLO 205 colon = tested on: COLO 205 colon
CCRF-CEM leukemia = tested on: CCRF-CEM leukemia
KM12 colon = tested on: KM12 colon
SK-MEL-2 melanoma = tested on: SK-MEL-2 melanoma
TK-10 renal = tested on: TK-10 renal
LXFL 529 NSCLC = tested on: LXFL 529 NSCLC
SNB-75 CNS = tested on: SNB-75 CNS
OVCAR-4 ovarian = tested on: OVCAR-4 ovarian
NCI-H226 lung = tested on: NCI-H226 lung
DMS 273 small cell lung = tested on: DMS 273 small cell lung
HCT-116 colon = tested on: HCT-116 colon
OVCAR-8 ovarian = tested on: OVCAR-8 ovarian
SR leukemia = tested on: SR leukemia
A549 NSCLC = tested on: A549 NSCLC
ACHN renal = tested on: ACHN renal
MOLT-4 leukemia = tested on: MOLT-4 leukemia
DLD-1 colon = tested on: DLD-1 colon
KM20L2 colon = tested on: KM20L2 colon
UO-31 renal = tested on: UO-31 renal
HOP-18 NSCLC = tested on: HOP-18 NSCLC
RXF-631 renal = tested on: RXF-631 renal
RXF 393 renal = tested on: RXF 393 renal
MALME-3M melanoma = tested on: MALME-3M melanoma
OVCAR-3 ovarian = tested on: OVCAR-3 ovarian
CAKI-1 renal = tested on: CAKI-1 renal
786-0 renal = tested on: 786-0 renal
SK-OV-3 ovarian = tested on: SK-OV-3 ovarian
DMS 114 small cell lung = tested on: DMS 114 small cell lung
RPMI-8226 leukemia = tested on: RPMI-8226 leukemia
SN12C renal = tested on: SN12C renal
NCI-H522 lung = tested on: NCI-H522 lung
SW-620 colon = tested on: SW-620 colon
SF-268 CNS = tested on: SF-268 CNS
HT29 colon = tested on: HT29 colon
M19-MEL melanoma = tested on: M19-MEL melanoma
K-562 leukemia = tested on: K-562 leukemia
OVCAR-5 ovarian = tested on: OVCAR-5 ovarian
LOX IMVI melanoma = tested on: LOX IMVI melanoma
SF-539 CNS = tested on: SF-539 CNS
UACC-62 melanoma = tested on: UACC-62 melanoma
A498 renal = tested on: A498 renal
UACC-257 melanoma = tested on: UACC-257 melanoma
SF-295 CNS = tested on: SF-295 CNS
HOP-92 NSCLC = tested on: HOP-92 NSCLC
M14 melanoma = tested on: M14 melanoma
SNB-19 CNS = tested on: SNB-19 CNS
SNB-78 CNS = tested on: SNB-78 CNS
SK-MEL-28 melanoma = tested on: SK-MEL-28 melanoma

## Cc1cc(Cl)ccc1N1C(=O)C(=O)C(c2nc3ccccc3s2)/C(=N\NC(=O)c2ccccc2O)C1=O (stereo not drawn)
HCC-2998 colon
  TGI: > 100 µM
HOP-62 NSCLC
  TGI: > 100 µM
NCI-H23 lung
  TGI: > 100 µM
EKVX NSCLC
  TGI: > 100 µM
IGROV1 ovarian
  TGI: > 100 µM
U251 CNS
  TGI: > 100 µM
NCI-H460 lung
  TGI: > 100 µM
HCT-15 colon
  TGI: > 100 µM
HL-60(TB) leukemia
  TGI: > 100 µM
SK-MEL-5 melanoma
  TGI: > 100 µM
COLO 205 colon
  TGI: > 100 µM
CCRF-CEM leukemia
  TGI: > 100 µM
KM12 colon
  TGI: > 100 µM
SK-MEL-2 melanoma
  TGI: > 100 µM
TK-10 renal
  TGI: > 100 µM
LXFL 529 NSCLC
  TGI: > 100 µM
SNB-75 CNS
  TGI: > 100 µM
OVCAR-4 ovarian
  TGI: > 100 µM
NCI-H226 lung
  TGI: > 100 µM
DMS 273 small cell lung
  TGI: > 100 µM
HCT-116 colon
  TGI: > 100 µM
OVCAR-8 ovarian
  TGI: > 100 µM
SR leukemia
  TGI: > 100 µM
A549 NSCLC
  TGI: > 100 µM
ACHN renal
  TGI: > 100 µM
MOLT-4 leukemia
  TGI: > 21 µM
DLD-1 colon
  TGI: > 100 µM
KM20L2 colon
  TGI: > 100 µM
UO-31 renal
  TGI: > 100 µM
HOP-18 NSCLC
  TGI: > 100 µM
RXF-631 renal
  TGI: > 100 µM
RXF 393 renal
  TGI: > 100 µM
MALME-3M melanoma
  TGI: > 100 µM
OVCAR-3 ovarian
  TGI: > 100 µM
CAKI-1 renal
  TGI: > 100 µM
786-0 renal
  TGI: > 100 µM
SK-OV-3 ovarian
  TGI: > 100 µM
DMS 114 small cell lung
  TGI: > 100 µM
RPMI-8226 leukemia
  TGI: > 100 µM
SN12C renal
  TGI: > 100 µM
NCI-H522 lung
  TGI: > 100 µM
SW-620 colon
  TGI: > 100 µM
SF-268 CNS
  TGI: > 100 µM
HT29 colon
  TGI: > 100 µM
M19-MEL melanoma
  TGI: > 100 µM
K-562 leukemia
  TGI: > 100 µM
OVCAR-5 ovarian
  TGI: > 100 µM
LOX IMVI melanoma
  TGI: > 100 µM
SF-539 CNS
  TGI: > 100 µM
UACC-62 melanoma
  TGI: > 100 µM
A498 renal
  TGI: > 100 µM
UACC-257 melanoma
  TGI: > 100 µM
SF-295 CNS
  TGI: > 100 µM
HOP-92 NSCLC
  TGI: > 100 µM
M14 melanoma
  TGI: > 100 µM
SNB-19 CNS
  TGI: > 100 µM
SNB-78 CNS
  TGI: > 100 µM
SK-MEL-28 melanoma
  TGI: > 100 µM
